Assay results reported in US8901314B2, “Substituted pyrazoles as N-type calcium channel blockers” (Janssen Pharmaceutica NV, priority 2012, dated 2014).

Tests used:
[1] = molecular target: α1B (Cav2.2), β3 and α2δ subunits of the N-type calcium channel (stable HEK cell line) (Rattus norvegicus, UniProt Q02294); experiment: Calcium-dye indicator assay (FDSS, KCl depolarization); assay type: cell-based; conditions: calcium mobilization response to 50 mM KCl; six-point concentration-response
Protocol: A stable cell line (HEK parent) co-expressing the α1B (Cav2.2), β3 and α2δ subunits of the N-type calcium channel subunits was used. These cells were routinely grown as monolayers in low glucose-containing Dulbecco's Modified Eagle Medium supplemented with 10% FBS, 2 mM L-glutamine, 100 I.U./mL penicillin, 100 μg/mL streptomycin, 400 μg/mL G418 and 200 μg/mL Zeocin (split ratio=1:5). Cells were maintained in 5% CO2 at 37° C. Compounds of Formula (I) were prepared as 10 mM stocks in DMSO from neat compound, if available. Otherwise, the 5 or 10 mM DMSO stock solutions provided in-house were used.
Calcium mobilization responses to KCl depolarization were evaluated by measuring the intensity of calcium-mediated fluorescent signal in the presence of BD Calcium Assay Dye (BD Biosciences, Franklin Lakes, N.J., U.S.A.), utilizing a Functional Drug Screening System (FDSS) by Hamamatsu Corporation (Bridgewater, N.J., U.S.A.).
Twenty-four hours prior to assay, cells were seeded in clear-base poly-D-lysine coated 384-well plates (BD Biosciences) at a density of 5,000 cells per well in culture medium and grown overnight in 5% CO2 at 37° C. On the day of assay growth media were removed and cells were loaded with BD calcium assay dye (BD Biosciences) for 35 min at 37° C. under 5% CO2 and then for 25 min at room temperature. Utilizing the FDSS, cells were exposed to representative compounds of Formula (I) at varying concentrations and intracellular calcium was measured for 5 min prior to the addition of 50 mM KCl for an additional 3 min of measurement.
Maximal fluorescence intensity (FI) achieved upon addition of 50 mM KCl was exported from the FDSS software and further analyzed using GraphPad Prism 4 (Graph Pad Software Inc., CA, U.S.A.). Data were normalized to the maximum average counts from quadruplicate wells for each condition in the presence of 50 mM KCl and to the minimum average counts in the presence of buffer. Theoretical curves were generated using nonlinear regression curve-fitting analysis of either sigmoidal concentration-response or sigmoidal concentration-response (variable slope), and the IC50 values with the best-fit dose curve determined by GraphPad Prism were reported.

[2] = system: Cav2.2 (N-type calcium channel; α1B, α2δ and β3 subunits stably expressed in HEK293 cells); experiment: Automated electrophysiology assay (QPatch-HT patch clamp); assay type: cell-based
Protocol: The Cav2.2 (α1B) subunit (GenBank accession no. AAO53230; supplied by Lipscombe's laboratory at Brown University) was subcloned into pcDNA3.1, whereas the α2δ (M86621) and β3 (M88751) subunits were subcloned into pBudCE4.1 vectors. Stable cell lines expressing all three subunits were generated according to the following procedure: 1) HEK293 cells were transfected with α2δ−1/β3 expression constructs resulting in a stable cell line expressing α2δ−1 and β3 subunits that were selected under 200 μg/mL of Zeocin; 2) a stable cell line expressing α2δ−1/β3 subunits in high quantity as evidenced in its Western blots was isolated from the colony and purified; 3) this cell line was further transfected with Cav2.2 expression constructs, from which cells were subsequently selected under 400 μg/mL G418 and 200 μg/mL Zeocin; 4) these cells were clonally isolated, expanded and screened by Western blot analysis for expressing all three subunits
Cultures of cells stably expressing Cav2.2 were maintained at 37° C. in low glucose-containing Dulbecco's Modified Eagle medium (low glucose) under a 5% CO2 atmosphere. The medium was supplemented with 10% fetal bovine serum, 2 mM L-glutamine, 100 IU/mL penicillin, […] streptomycin, 400 μg/mL G418 and 200 μg/mL Zeocin.
High-throughput automated patch clamp system experiments were carried out using instruments (QPatch-HT) available from Sophion Biosciences, Inc. North Brunswick, N.J. Cells were grown in T175 flasks to 50%-90% confluence were enzymatically treated with Deatchin (Genlantis, San Diego, Calif., U.S.A.), centrifuged, rinsed and resuspended in 293 SFM II media (Life Technologies, Grand Island, N.Y., U.S.A.) supplemented with 25 mM HEPES (Sigma-Aldrich, St. Louis, Mo., U.S.A.) to a concentration of 2−3×10^6 cells/mL. Cells were added to automated cell preparation station on the QPatch-HT (Sophion Biosciences, North Brunswick, N.J., U.S.A.) and following a 10- to 30-min recovery period with gentle stirring, the assay protocol was initiated. During the automated cell preparation, cells were collected, centrifuged and resuspended in an extracellular (EC) solution containing 132 mM NaCl, 1.8 mM CaCl2, 5.4 mM KCl, 0.8 mM MgCl2, 10 mM glucose, and 10 mM HEPES (pH=7.4), adjusted with sucrose to 315 m0sm. The QPlate was primed with an intracellular solution containing 135 CsCl, 10 mM EGTA, 4 MgATP, 0.3 NaGTP, and 20 mM HEPES (pH=7.2), adjusted to approximately 290 m0sm with deionized water and the EC solution. Cells were added to the prepared QPlate wells by robotic pipettes of the QPatch-HT.
For cells determined to be in stable whole-cell patch clamp, the EC solution was replaced with a barium (Ba)/triethylammonium (TEA) solution containing 140 mM TEA-Cl, 10 mM BaCl2, 0.8 mM MgCl2, 10 mM glucose, and 10 mM HEPES (pH=7.4). High (40 mM) BaCl2 concentrations were made with adjustments of TEA-Cl (90 mM) to maintain the osmolarity. From a resting potential of −80 mV, a train of depolarizing pulses (15 pulses at 5 Hz, +20 mV) was delivered to the cell once every 30 sec for eight trains (4 min total), and the resulting currents were measured during a control period (no compound). This protocol was repeated for each subsequent addition of control buffer with or without compound (three periods total, each with four trains). The current generated in the 1st and 15th pulses of the last train of each period in the presence of each drug concentration was normalized to the current generated during the control period at the respective pulses (representing low- and high frequency stimulation, respectively). Data from both the second and third drug application period were analyzed for each cell. A final addition of Ba/TEA solution containing 60-100 uM CdCl2 was made to block all N-type current and “zero” the currents for each cell. A buffer/compound additions were made using a “spitting” feature of the QPatch-HT, which added three repretitions of 5 μL solution at the beginning of each recording period.

[3] = 0.1 μM, high frequency stimulation (15th pulse of 5 Hz train)
[4] = 0.1 μM, low frequency stimulation (1st pulse of train)

| SMILES | IC50 [1] [nM] | other results |
| --- | --- | --- |
| FC(F)(F)Oc1ccccc1-n1nc(C2CCOCC2)cc1-c1ccc(Cl)cc1 [Compound 79, 5-(4-Chlorophenyl)-3-(tetrahydro-2H-pyran-4-yl)-1-[2-(trifluoromethoxy)phenyl]-1H-pyrazole] | 180 | – |
| COc1ccccc1-n1nc(C2CC(C)(C)S(=O)(=O)C(C)(C)C2)cc1-c1ccc(Cl)cc1 [Compound 59, 5-(4-Chlorophenyl)-1-(2-methoxyphenyl)-3-(2,2,6,6-tetramethyl-1,1-dioxidotetrahydro-2H-thiopyran-4-yl)-1H-pyrazole] | – | QPatch % Inhibition, High Freq [2, 3]: 54%; QPatch % Inhibition, Low Freq [2, 4]: 54% |
| COc1ccccc1-n1nc(C2CC(C)(C)OC(C)(C)C2)cc1-c1ccncc1 [Compound 32, 4-[1-(2-Methoxyphenyl)-3-(2,2,6,6-tetramethyltetrahydro-2H-pyran-4-yl)-1H-pyrazol-5-yl]pyridine] | 140 | – |
| COc1cc(OC)cc(-c2cc(C3CC(C)(C)OC(C)(C)C3)nn2-c2ccccc2OC)c1 [Compound 43, 5-(3,5-Dimethoxyphenyl)-1-(2-methoxyphenyl)-3-(2,2,6,6-tetramethyltetrahydro-2H-pyran-4-yl)-1H-pyrazole] | 58 | – |
| COc1ccccc1-n1nc(C2CC(C)(C)OC(C)(C)C2)cc1-c1ccc2c(c1)OCCO2 [Compound 27, 5-(2,3-Dihydro-1,4-benzodioxin-6-yl)-1-(2-methoxyphenyl)-3-(2,2,6,6-tetramethyltetrahydro-2H-pyran-4-yl)-1H-pyrazole] | 1.5 | – |
| COc1ncc(-c2cc(C3CC(C)(C)OC(C)(C)C3)nn2-c2ccccc2OC)cn1 [Compound 39, 2-Methoxy-5-[1-(2-methoxyphenyl)-3-(2,2,6,6-tetramethyltetrahydro-2H-pyran-4-yl)-1H-pyrazol-5-yl]pyrimidine] | 72 | – |
| COc1ccccc1-n1nc(C2CCOCC2)cc1-c1ccc(Cl)cc1 [Compound 71, 5-(4-Chlorophenyl)-1-(2-methoxyphenyl)-3-(tetrahydro-2H-pyran-4-yl)-1H-pyrazole] | 31 | – |
| COc1ccccc1-n1nc(C2CC(C)(C)OC(C)(C)C2)cc1-c1ccc(OC(C)C)cc1 [Compound 24, 1-(2-Methoxyphenyl)-5-[4-(1-methylethoxy)phenyl]-3-(2,2,6,6-tetramethyltetrahydro-2H-pyran-4-yl)-1H-pyrazole] | 11 | – |
| Clc1ccc(-c2cc(C3CCOCC3)nn2-c2ccccc2Cl)cc1 [Compound 74, 1-(2-Chlorophenyl)-5-(4-chlorophenyl)-3-(tetrahydro-2H-pyran-4-yl)-1H-pyrazole] | 53 | – |
| COc1ccccc1-n1nc(C2CC(C)(C)SC(C)(C)C2)cc1-c1ccc(Cl)cc1 [Compound 58, 5-(4-Chloro-phenyl)-1-(2-methoxy-phenyl)-3-(2,2,6,6-tetramethyl-tetrahydro-thiopyran-4-yl)-1H-pyrazole] | – | QPatch % Inhibition, High Freq [2, 3]: 26%; QPatch % Inhibition, Low Freq [2, 4]: 19% |
| COc1cncc(-c2cc(C3CC(C)(C)OC(C)(C)C3)nn2-c2ccccc2OC)c1 [Compound 34, 3-Methoxy-5-[1-(2-methoxyphenyl)-3-(2,2,6,6-tetramethyltetrahydro-2H-pyran-4-yl)-1H-pyrazol-5-yl]-pyridine] | 120 | – |
| COc1ccccc1-n1nc(C2=CC(C)(C)OC2(C)C)cc1-c1ccc(Cl)cc1 [Compound 97, 5-(4-Chlorophenyl)-1-(2-methoxyphenyl)-3-(2,2,5,5-tetramethyl-2,5-dihydrofuran-3-yl)-1H-pyrazole] | 13 | – |
| COc1ccccc1-n1nc(C2CC(C)(C)OC(C)(C)C2)cc1-c1ccc2[nH]ccc2c1 [Compound 42, 5-[1-(2-Methoxyphenyl)-3-(2,2,6,6-tetramethyltetrahydro-2H-pyran-4-yl)-1H-pyrazol-5-yl]-1H-indole] | 55 | – |
| COc1ccccc1-n1nc(C2CC(C)(C)OC(C)(C)C2)cc1-c1ccc(OCCN(C)C)cc1 [Compound 82, 2-{4-[1-(2-Methoxyphenyl)-3-(2,2,6,6-tetramethyltetrahydro-2H-pyran-4-yl)-1H-pyrazol-5-yl]phenoxy}-N,N-dimethylethanamine] | 770 | – |
| CC1(C)CC(c2cc(-c3ccc(Cl)cc3)n(-c3ccncc3)n2)CC(C)(C)O1 [Compound 51, 4-[5-(4-Chlorophenyl)-3-(2,2,6,6-tetramethyltetrahydro-2H-pyran-4-yl)-1H-pyrazol-1-yl]-pyridine] | – | QPatch % Inhibition, High Freq ([2]; 0.1 µM): 22%; QPatch % Inhibition, Low Freq ([2]; 0.1 µM): −17% |
| COc1ccc(-c2cc(C3CC(C)(C)OC(C)(C)C3)nn2-c2ccccc2OC)cc1OC [Compound 29, 5-(3,4-Dimethoxyphenyl)-1-(2-methoxyphenyl)-3-(2,2,6,6-tetramethyltetrahydro-2H-pyran-4-yl)-1H-pyrazole] | 58 | – |
| CC1(C)CC(c2cc(-c3ccc(Cl)cc3)n(-c3ccccn3)n2)CC(C)(C)O1 [Compound 50, 2-[5-(4-Chloro-phenyl)-3-(2,2,6,6-tetramethyl-tetrahydro-pyran-4-yl)-pyrazol-1-yl]-pyridine] | – | QPatch % Inhibition, High Freq ([2]; 0.1 µM): 1%; QPatch % Inhibition, Low Freq ([2]; 0.1 µM): −37% |
| COc1ccccc1-n1nc(C2CC(C)(C)OC(C)(C)C2)cc1-c1ccnc(Cl)c1 [Compound 25, 2-Chloro-4-[1-(2-methoxyphenyl)-3-(2,2,6,6-tetramethyltetrahydro-2H-pyran-4-yl)-1H-pyrazol-5-yl]pyridine] | – | QPatch % Inhibition, High Freq [2, 3]: 29%; QPatch % Inhibition, Low Freq [2, 4]: 14% |
| COc1ccccc1-n1nc(C2CC(C)(C)OC(C)(C)C2)cc1-c1ccc([S+](C)[O-])cc1 (stereo not shown) [Compound 47, 5-(4-Methanesulfinyl-phenyl)-1-(2-methoxy-phenyl)-3-(2,2,6,6-tetramethyl-tetrahydro-pyran-4-yl)-1H-pyrazole] | – | QPatch % Inhibition, High Freq [2, 3]: 28%; QPatch % Inhibition, Low Freq [2, 4]: 25% |
